Experimental data: US20110165183A1, “PIPERIDINE DERIVATIVES AS JAK3 INHIBITORS” (BioCryst Pharmaceuticals, Inc., priority 2008, published 2011)

| Structure (SMILES) | melting point [°C] |
| --- | --- |
| C[C@@H]1CCN(C(=O)CC#N)C[C@@H]1N(C)c1ncnc2ccoc12 [Example 2, 3-((3R,4R)-3-(furo[3,2-d]pyrimidin-4-yl(methyl)amino)-4-methylpiperidin-1-yl)-3-oxopropanenitrile] | 107.7 |
| C[C@@H]1CCN(C(=O)CC#N)C[C@@H]1N(C)c1ncnn2ccnc12 [Example 4, 3-((3R,4R)-3-(Imidazo[1,2-f][1,2,4]triazin-4-yl(methyl)amino)-4-methylpiperidin-1-yl)-3-oxopropanenitrile] | 72 |
| Cc1cc(N(C)[C@H]2CN(C(=O)CC#N)CC[C@H]2C)n2ncnc2n1 [Example 8, 3-((3R,4R)-4-Methyl-3-(methyl(5-methyl-1,2,41-triazolo[1,5-a]pyrimidin-7-yl)amino)piperidin-1-yl)-3-oxopropanenitrile] | 119.3 |
| C[C@@H]1CCN(C(=O)CC#N)C[C@@H]1N(C)c1ncnc2sccc12 [Example 9, 3-((3R,4R)-4-methyl-3-(methyl(thieno[2,3-d]pyrimidin-4-yl)amino)piperidin-1-yl)-3-oxopropanenitrile] | 74.3 |
| C[C@@H]1CCN(c2ncnn3cccc23)C[C@@H]1N(C)c1ncnn2cccc12 [Example 17, N-Methyl-N-((3R,4R)-4-methyl-1-(pyrrolo[1,2-f][1,2,4]triazin-4-yl)piperidin-3-yl)pyrrolo[1,2-f][1,2,4]triazin-4-amine] | 103.4 |
| C[C@@H]1CCNC[C@@H]1N(C)c1nccc2[nH]ccc12 [Example 18, N-Methyl-N-((3R,4R)-4-methylpiperidin-3-yl)-1H-pyrrolo[3,2-c]pyridin-4-amine] | 126.9 |
